Measured values reported in patent publication US20140315886A1, “QUINAZOLINES AS THERAPEUTIC COMPOUNDS AND RELATED METHODS OF USE” (OTSUKA PHARMACEUTICAL CO., LTD., priority 2011, published 2014).
pIC50: −log10 of the molar value.

Target: T1, purified STEP46 enzyme (Homo sapiens, UniProt P54829)
T1 sequence (P54829 197-565 limits assumed): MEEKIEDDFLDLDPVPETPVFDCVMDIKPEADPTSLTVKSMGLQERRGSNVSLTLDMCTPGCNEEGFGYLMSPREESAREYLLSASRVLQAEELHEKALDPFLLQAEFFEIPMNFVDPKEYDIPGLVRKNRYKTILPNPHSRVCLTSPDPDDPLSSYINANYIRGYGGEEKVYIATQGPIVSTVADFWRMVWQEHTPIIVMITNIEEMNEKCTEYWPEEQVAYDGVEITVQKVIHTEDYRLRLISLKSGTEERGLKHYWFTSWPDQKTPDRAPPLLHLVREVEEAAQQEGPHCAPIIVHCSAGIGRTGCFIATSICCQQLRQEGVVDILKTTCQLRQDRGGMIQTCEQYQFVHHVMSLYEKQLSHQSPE
Test: STEP46 biochemical assay (DiFMUP fluorescence phosphatase assay)
Details: DiFMUP 10 μM, read-out: STEP IC50
Protocol: Serial dilutions of compounds were performed in 100% DMSO and 1 uL of compounds were dispensed into 384-well black polystyrene plates (Corning, N.Y.). Compounds were incubated with 24 uL of buffer containing 50 mM Hepes, 1 mM DTT, 0.02% Brij35, 1 ng/well purified STEP46 enzyme for […] at room temperature. The reaction was initiated by addition of 25 uL of DiFMUP (6,8-difluoro-4-methylumbelliferyl phosphate) (InVitrogen, CA) with a final concentration of 10 μM and incubated at 27° C. for 90 mM Final DMSO concentration is 2%. Plates were read with florescence intensity at excitation/emission of 360/460 nm using a PheraStar plate reader (BMG Labtech, NC).
Data were expressed as percentage (%) inhibition of enzyme activity. 0% inhibition is defined as the RFUs (relative fluorescence units) in the absence of compounds and 100% inhibition is defined as RFUs in the absence of STEP46 enzyme. IC50 values of compounds with inhibitory activity against STEP46 were determined by GraphPad Prism (version 4.03) using four parameter logistic equation. Some compounds act as activators. For compounds showing STEP46 enzymatic activation, data are represented as percentage of inhibition but with negative values at three representative concentrations (25, 50 and 100 uM).

Compound	pIC50
CNc1nc(-c2cccnc2)nc2ccc(-c3cccc(S(C)(=O)=O)c3)cc12 [Compound 245]	< 5.00
CNc1nc(-c2cccnc2)nc2cc(Cl)c(-c3ccc(F)cc3F)cc12 [Compound 246]	5.00 to 6.00
CNc1nc(-c2cccnc2)nc2ccc(-c3ccc(F)cc3C)cc12 [Compound 247]	5.00 to 6.00
CNc1nc(-c2cccnc2)nc2ccc(-c3ccc(F)cc3C(F)(F)F)cc12 [Compound 248]	< 5.00
CNc1nc(-c2cccnc2)nc2ccc(-c3ccc(OC)cc3C(F)(F)F)cc12 [Compound 249]	< 5.00
CNc1nc(-c2cccnc2)nc2ccc(-c3cccc(-c4ncco4)c3)cc12 [Compound 250]	> 6.00
CNc1nc(-c2cccnc2)nc2c(OC)cc(-c3cc(F)ccc3F)cc12 [Compound 252]	5.00 to 6.00
CNc1nc(-c2cccnc2)nc2c(OC)cc(-c3cccc(F)c3)cc12 [Compound 253]	5.00 to 6.00
CNc1nc(-c2cccnc2)nc2c(OC)cc(-c3ccccc3F)cc12 [Compound 254]	5.00 to 6.00
CNc1nc(-c2cccnc2)nc2c(OC)cc(-c3ccc(F)c(F)c3)cc12 [Compound 255]	5.00 to 6.00
CNc1nc(-c2cccnc2)nc2ccc(-c3ccc(S(=O)(=O)C(C)C)cc3)cc12 [Compound 256]	< 5.00
CNc1nc(-c2cccnc2)nc2ccc(-c3cccc(OC(C)C)c3)cc12 [Compound 257]	< 5.00
CNc1nc(-c2cccnc2)nc2c(OC)cc(-c3ccc(F)cc3)cc12 [Compound 259]	< 5.00
CNc1nc(-c2cccnc2)nc2c(OC)cc(-c3ccc(C#N)cc3)cc12 [Compound 260]	< 5.00
CNc1nc(-c2cccnc2)nc2ccc(-c3cc(OC(F)(F)F)ccc3F)cc12 [Compound 263]	5.00 to 6.00
CNc1nc(-c2cccnc2)nc2c(Cl)cc(-c3cccc(F)c3)cc12 [Compound 264]	5.00 to 6.00
CNc1nc(-c2cccnc2)nc2ccc(-c3cccc(C)c3Cl)cc12 [Compound 268]	< 5.00
CNc1nc(-c2cccnc2)nc2c(-c3cccc(C#N)c3)cccc12 [Compound 272]	> 6.00
CNc1nc(-c2cccnc2)nc2cc(-c3ccc(C)o3)ccc12 [Compound 273]	5.00 to 6.00
CNc1nc(-c2cccnc2)nc2c(-c3cccc(F)c3)cccc12 [Compound 274]	5.00 to 6.00
CNc1nc(-c2cccnc2)nc2cc(-c3ccoc3C)ccc12 [Compound 275]	< 5.00
CNc1nc(-c2cccnc2)nc2cc(-c3cc(C)oc3C)ccc12 [Compound 276]	< 5.00
CNc1nc(-c2cccnc2)nc2c(-c3cc(F)cc(F)c3)cccc12 [Compound 277]	< 5.00
CNc1nc(-c2cccnc2)nc2c(-c3ccc(F)c(F)c3)cccc12 [Compound 278]	5.00 to 6.00
CNc1nc(-c2cccnc2)nc2cc(-c3cc(F)cc(OC)c3)ccc12 [Compound 279]	> 6.00

Compound	pIC50
CNc1nc(-c2cccnc2)nc2ccc(-c3cc(F)nc(F)c3)cc12 [Compound 283]	5.00 to 6.00
CNc1nc(-c2cccnc2)nc2cc(-c3cc(F)nc(F)c3)ccc12 [Compound 284]	> 6.00
CNc1nc(-c2cccnc2)nc2ccc(-c3cc(C)oc3C)cc12 [Compound 285]	5.00 to 6.00
CNc1nc(-c2cccnc2)nc2c(C)c(-c3ccc(F)c(F)c3F)ccc12 [Compound 286]	5.00 to 6.00
CNc1nc(-c2cccnc2)nc2c(C)c(-c3cc(F)c(F)cc3F)ccc12 [Compound 287]	< 5.00
CNc1nc(-c2cccnc2)nc2c(C)c(-c3cc(F)cc(F)c3F)ccc12 [Compound 288]	5.00 to 6.00
CNc1nc(-c2cccnc2)nc2c(C)c(-c3cc(F)c(F)c(F)c3)ccc12 [Compound 289]	> 6.00
Cc1c(-c2cccc(C#N)c2)ccc2c(N(C)C)nc(-c3cccnc3)nc12 [Compound 290]	< 5.00
Cc1c(-c2ccc(C#N)cc2)ccc2c(N(C)C)nc(-c3cccnc3)nc12 [Compound 291]	5.00 to 6.00
Cc1c(-c2cc(F)c(F)c(F)c2)ccc2c(N(C)C)nc(-c3cccnc3)nc12 [Compound 292]	5.00 to 6.00
CNc1nc(-c2cccnc2)nc2c(C)c(-c3ccncc3)ccc12 [Compound 293]	5.00 to 6.00
CNc1nc(-c2cccnc2)nc2c(C)c(-c3ccc(C)cc3)ccc12 [Compound 296]	< 5.00
CNc1nc(-c2cccnc2)nc2c(C)c(-c3ccccc3C)ccc12 [Compound 297]	< 5.00
CNc1nc(-c2cccnc2)nc2c(C)c(-c3ccc4c(cnn4C)c3)ccc12 [Compound 298]	> 6.00
CNc1nc(-c2cccnc2)nc2cc(C)c(-c3cccc(F)c3)cc12 [Compound 299]	5.00 to 6.00
CNc1nc(-c2cccnc2)nc2cc(C)c(-c3ccc(F)c(F)c3F)cc12 [Compound 301]	5.00 to 6.00
CNc1nc(-c2cccnc2)nc2cc(C)c(-c3ccc(F)c(OC)c3)cc12 [Compound 304]	< 5.00
CNc1nc(-c2cccnc2)nc2c(OC)cc(-c3cccc(Cl)c3)cc12 [Compound 305]	5.00 to 6.00
CNc1nc(-c2cccnc2)nc2c(OC)cc(-c3ccccc3Cl)cc12 [Compound 306]	5.00 to 6.00
CNc1nc(-c2cccnc2)nc2c(OC)cc(-c3ccc(Cl)cc3)cc12 [Compound 307]	5.00 to 6.00
CN(C)c1nc(-c2cccnc2)nc2ccc(-c3ccc(C4CC4)cc3)cc12 [Compound 308]	< 5.00
Nc1nc(-c2cccnc2)nc2cc(-c3cc(F)c(F)c(F)c3)ccc12 [Compound 312]	5.00 to 6.00
CN(C)c1nc(-c2cccnc2)nc2cc(-c3cc(F)c(F)c(F)c3)ccc12 [Compound 313]	5.00 to 6.00
CN(C)CCCN(C)c1nc(-c2cccnc2)nc2cc(-c3cc(F)ccc3F)ccc12 [Compound 314]	< 5.00
CNc1nc(-c2cccnc2)nc2cc(-c3cc(F)ccc3OC)ccc12 [Compound 316]	5.00 to 6.00

Compound	pIC50
CNc1nc(-c2cccnc2)nc2cc(-c3ccco3)ccc12 [Compound 317]	< 5.00
CNc1nc(-c2cccnc2)nc2cc(-c3ccoc3)ccc12 [Compound 318]	< 5.00
CNc1nc(-c2cccnc2)nc2cc(-c3cccs3)ccc12 [Compound 319]	5.00 to 6.00
CNc1nc(-c2cccnc2)nc2cc(-c3ccsc3)ccc12 [Compound 320]	5.00 to 6.00
CNc1nc(-c2cccnc2)nc2cc(-c3ccc(F)cc3C)ccc12 [Compound 321]	5.00 to 6.00
CNc1nc(-c2cccnc2)nc2cc(-c3ccc(F)cc3OC)ccc12 [Compound 322]	5.00 to 6.00
CNc1nc(-c2cccnc2)nc2cc(-c3c(F)ccc(F)c3C)ccc12 [Compound 323]	< 5.00
CNc1nc(-c2cccnc2)nc2cc(-c3cccc(F)c3C)ccc12 [Compound 324]	5.00 to 6.00
Fc1cc(F)cc(-c2ccc3nc(-c4ccnnc4)nc(NCc4ccccn4)c3c2)c1 [Compound 328]	5.00 to 6.00
Fc1ccc(-c2ccc3nc(-c4ccnnc4)nc(NCc4ccccn4)c3c2)c(F)c1 [Compound 329]	5.00 to 6.00
Fc1cccc(-c2ccc3nc(-c4ccnnc4)nc(NCc4ccccn4)c3c2)c1F [Compound 333]	< 5.00
Fc1cccc(-c2ccc3nc(-c4cccnc4)nc(NCCc4ccccn4)c3c2)c1 [Compound 336]	5.00 to 6.00
Fc1ccc(-c2ccc3nc(-c4cccnc4)nc(NCCc4ccccn4)c3c2)cc1 [Compound 337]	< 5.00
Fc1ccc(F)c(-c2ccc3nc(-c4cccnc4)nc(NCCc4ccccn4)c3c2)c1 [Compound 339]	5.00 to 6.00
Fc1ccc(-c2ccc3c(NCCc4ccccn4)nc(-c4cccnc4)nc3c2)cc1 [Compound 340]	5.00 to 6.00
Cn1ccc2c(-c3ccc4nc(-c5cccnc5)nc(NCc5ccccn5)c4c3)cccc21 [Compound 341]	< 5.00
Cn1ccc2cc(-c3ccc4nc(-c5cccnc5)nc(NCc5ccccn5)c4c3)ccc21 [Compound 342]	> 6.00
c1ccc(CNc2nc(-c3cccnc3)nc3ccc(-c4cc5ccccc5o4)cc23)nc1 [Compound 343]	> 6.00
COc1ccc(-c2ccc3nc(-c4cccnc4)nc(NCc4ccccn4)c3c2)cc1 [Compound 344]	5.00 to 6.00
c1ccc(CCNc2nc(-c3cccnc3)nc3ccc(-c4cc5ccccc5o4)cc23)nc1 [Compound 345]	5.00 to 6.00
Cn1ccc2cc(-c3ccc4nc(-c5cccnc5)nc(NCCc5ccccn5)c4c3)ccc21 [Compound 346]	> 6.00
c1ccc(CNc2nc(-c3cccnc3)nc3cc(-c4cc5ccccc5o4)ccc23)nc1 [Compound 347]	5.00 to 6.00
c1ccc(CNc2nc(-c3cccnc3)nc3ccc(-c4ccco4)cc23)nc1 [Compound 348]	5.00 to 6.00
CC(Nc1nc(-c2cccnc2)nc2ccc(-c3cc(F)cc(F)c3)cc12)c1ccccc1 (stereo not drawn) [Compound 349]	5.00 to 6.00
CC(Nc1nc(-c2cccnc2)nc2ccc(-c3ccc(F)c(F)c3)cc12)c1ccccc1 (stereo not drawn) [Compound 350]	5.00 to 6.00
